Values of other authors in US7777053B2, “Efficient process for production of carvedilol phosphate” (Wanbury Limited, priority 2007, dated 2010).
Structures can show the parent of a compound that is named as a salt. Where two headings read alike, the source gives them in different places.

Row | SMILES | solubility (neutral or alkaline media, above pH of 9.0) | saturation solubility (pH=5, room temperature) | saturation solubility (pH=7, room temperature) | aqueous solubility (as described in US 2005/0277689 A1, compared with carvedilol)
1 | COc1ccccc1OCCNCC(O)COc1cccc2[nH]c3ccccc3c12 (stereo not shown) [Carvedilol, 1-(9H-carbazol-4yloxy)-3-[[2-(2-methoxyphenoxy)-ethyl]amino]-propan-2-ol] | < 1 µg/mL | about 100 μg/ml | about 23 μg/ml | –
2 | COc1ccccc1OCCNCC(O)COc1cccc2[nH]c3ccccc3c12 (stereo not shown) [carvedilol phosphate, phosphate salts of 1-(9H-carbazol-4yloxy)-3-[[2-(2-methoxyphenoxy)ethyl]amino]-propan-2-ol] | – | – | – | much higher aqueous solubility
